# Data as given in patent US6319952A, “Compositions and methods for reversibly increasing permeability of biomembranes” (D-Pharm Ltd., priority 1997, dated 2001).
# Entries after “also recorded” stand apart in the source; their conditions may differ.
# Legend:
# [1] = system: bovine brain capillary endothelial cells in co-culture with astrocytes; assay: Determination of lactate dehydrogenase (LDH) in the medium of endothelial cells in coculture; format: cell-based
# Experimental: In the same experiments, lactate dehydrogenase was assayed in the medium in order to check the toxicity. This cytoplasmic enzyme is not able to cross the cellular membrane except if the membrane integrity is destroyed. An increase in the release of Lactate Dehydrogenase (LDH) indicates a breakdown of the cellular membrane, leading to a cellular death. In other words, the LDH determination in the medium allows an assessment of cell viability. […]
# [2] = system: ipsilateral hemisphere of the brain; assay: Methotrexate content of brains of rats pretreated with M3,14 (DP-BFA); format: in vivo, rat; conditions: intra-arterial pre-treatment, carotid artery
structure (smiles),measurement,setting,value
"CCCCCCCCCCCCCCC(CCC)C(=O)O (stereo not shown) [M 3/14, 2-propylhexadecanoic acid]",LDH release,"[1]; 0.16 mg/ml, 24 hrs incubation",significant increase in LDH release
same,cytotoxic effect,"[1]; 0.16 mg/ml, 24 hrs incubation",cytotoxic effect
same,LDH release,"[1]; 1 hr incubation, paracellular study",no significant increase in LDH release
same,LDH release,"[1]; 1 hr incubation, transcellular study",No increase in release of LDH
same,cytotoxic effect,"[1]; 1 hr incubation, listed as DP-BFA",No cytotoxic effect; also recorded: not associated with cytotoxic effects
same,cytotoxic effect,[1]; 24 hrs reversibility study,No cytotoxic effect
same,LDH release,[1]; after 1 hr and after 24 hrs reversibility study,No increase in release of LDH
same,LDH release,[1]; reversibility kinetic study,No increase in release of LDH
same,cytotoxic effect,[1]; reversibility kinetic study,No cytotoxic effect
same,penetration of MTX into the ipsilateral hemisphere,[2],significantly increased the penetration of MTX
